Reference: US5627017A, “Low melting point ionizable epoxy scavengers for residual magenta couplers” (Eastman Kodak Company, priority 1995, dated 1997)

Tests used:
[1] = Dispersion stability in constant temperature bath at 45 °C; format: physicochemical; conditions: 3.0 g epoxide with 1.0 g tri(2-ethylhexyl) phosphate in gelatin/Alkanol XC, E1 disintegrated with significant settling, SI-4 no evidence of settling or macroscopic coagulation
Protocol: 3.0 grams of E1 was combined with 1.0 gram of the water-immiscible organic solvent tri(2-ethylhexyl) phosphate. The mixture was heated until the oil phase was homogeneous. 26.0 grams of a 12% w/w solution of Type IV gelatin in water was combined with 43.8 grams of water and 4.0 grams of Alkanol XC to constitute the aqueous phase. The aqueous phase was maintained at 70° C. The oil phase was combined with the aqueous phase while stirring. The mixture was then passed twice through the microfluidizer at a pressure of 10,000 psi to obtain the dispersion.
Both dispersions were placed in a constant temperature bath set at 45° C.

[2] = logP (logarithm of the octanol/water partition coefficient); format: physicochemical
Description: Hydrophobic photographic additives are conveniently incorporated in a hydrophilic colloid layer of a photographic element by dissolving the hydrophobic additive in an organic solvent and then dispersing the organic solution in an aqueous solution to form a homogenized dispersion. […] The low hydrophobicity is essential to achieve efficient post-process migration of these compounds from the adjacent non-imaging layers into the magenta imaging layer. The combination of low hydrophobicity and high melting point makes it difficult to prepare stable dispersions of these compounds by homogenization in an aqueous solution even if relatively large amounts of water-immiscible organic solvent is used to dissolve the compounds. The exemplified compounds are accordingly dispersed in the examples of U.S. Ser. No. 08/255,512 by a solid particle dispersion process. In this method size reduction of the epoxy compound is achieved by attrition with media such as zirconia beads instead of by shearing action on a liquid solution. The solid particle dispersion process is relatively inefficient compared to homogenization and often requires several days of grinding in order to achieve the desired level of size reduction.

| time at which dispersion disintegrated / showed settling or macroscopic coagulation [1] | logP [2] | Compound |
| --- | --- | --- |
| 6 h | 4.5 | O=C(CCCCCCCCC1CO1)Oc1ccc(NS(=O)(=O)c2ccc(F)cc2F)cc1 (stereo not shown) [E1] |
| > 12 h | 4.3 | O=C(CCCCCCCCC1CO1)Oc1ccc(NS(=O)(=O)c2ccccc2)cc1 (stereo not shown) [SI-4] |
